{"source": "paper PMC8565515", "about": "“Dasabuvir Inhibits Human Norovirus Infection in Human Intestinal Enteroids” (mSphere, 2021)", "key": {"GII.4 HuNoV": {"test_system": "GII.4 HuNoV", "assay": "GII.4 HuNoV infection of HIE monolayers, viral genome equivalents by RT-qPCR", "format": "cell-based, human norovirus", "conditions": "compound 10 μM, n = 1, J2 HIE monolayers, GII.4 HuNoV, 24 hpi, normalized to DMSO control; for activity at 10 µM: Norovirus, 24 h, read-out: (%) HuNoV GEs"}}, "note": "Structures can show the parent of a compound that is named as a salt. Where two headings read alike, the source gives them in different places.", "data": [{"compound": "CC[C@@H](CO)NCCN[C@@H](CC)CO", "note": "[Ethambutol dihydrochloride]", "values": [{"measurement": "(%) Cytotoxicity", "setting": "J2 HIE monolayers; human, 24 h, 10 μM", "result": 0.23, "unit": "%"}, {"measurement": "activity at 10 µM", "setting": "GII.4 HuNoV", "result": 100, "unit": "%"}]}, {"compound": "Cc1cccc(N2CCN(S(=O)(=O)c3ccc4c(c3)CCCN4C(=O)C3CCC3)CC2)c1C", "note": "[G855-2047]", "values": [{"measurement": "(%) HuNoV GEs", "setting": "GII.4 HuNoV", "result": 133.69, "unit": "%"}]}, {"compound": "Dermofongin", "values": [{"measurement": "(%) HuNoV GEs", "setting": "GII.4 HuNoV", "result": 46.93, "unit": "%"}]}, {"compound": "COc1cnc(-n2cnc(C)n2)c2c1c(C(=O)C(=O)N1CCN(C(=O)c3ccccc3)CC1)cn2COP(=O)(O)O", "note": "[Fostemsavir]", "values": [{"measurement": "(%) Cytotoxicity", "setting": "J2 HIE monolayers; human, 24 h, 10 μM", "result": -2.34, "unit": "%"}, {"measurement": "activity at 10 µM", "setting": "GII.4 HuNoV", "result": 87.3, "unit": "%"}]}, {"compound": "NC12CC3CC(CC(C3)C1)C2", "note": "[Amantadine hydrochloride]", "values": [{"measurement": "activity at 10 µM", "setting": "GII.4 HuNoV", "result": 232, "unit": "%"}]}, {"compound": "Cc1cn([C@H]2O[C@@H](CO)[C@H](O)[C@H]2F)c(=O)[nH]c1=O", "note": "[Clevudine]", "values": [{"measurement": "(%) Cytotoxicity", "setting": "J2 HIE monolayers; human, 24 h, 10 μM", "result": -0.09, "unit": "%"}, {"measurement": "activity at 10 µM", "setting": "GII.4 HuNoV", "result": 33.8, "unit": "%"}]}, {"compound": "CC(C)[C@H](N)C(=O)OCC(CO)OCn1cnc2c(=O)nc(N)[nH]c21", "note": "(stereo partly drawn) [Valganciclovir hydrochloride]", "values": [{"measurement": "(%) Cytotoxicity", "setting": "J2 HIE monolayers; human, 24 h, 10 μM", "result": 0.33, "unit": "%"}, {"measurement": "activity at 10 µM", "setting": "GII.4 HuNoV", "result": 189, "unit": "%"}]}, {"compound": "O=c1[nH]c(=O)n([C@H]2C[C@H](O)[C@@H](CO)O2)cc1I", "note": "[Dendrid]", "values": [{"measurement": "(%) Cytotoxicity", "setting": "J2 HIE monolayers; human, 24 h, 10 μM", "result": -0.36, "unit": "%"}, {"measurement": "activity at 10 µM", "setting": "GII.4 HuNoV", "result": 67.3, "unit": "%"}]}, {"compound": "Nc1nc2c(ncn2CCC(CO)CO)c(=O)[nH]1", "note": "[Penciclovir]", "values": [{"measurement": "(%) Cytotoxicity", "setting": "J2 HIE monolayers; human, 24 h, 10 μM", "result": 2.02, "unit": "%"}, {"measurement": "activity at 10 µM", "setting": "GII.4 HuNoV", "result": 22.1, "unit": "%"}]}, {"compound": "O=C(Nc1nc2ccc3scnc3c2s1)c1ccc2ccccc2c1", "note": "[KIN1148]", "values": [{"measurement": "(%) HuNoV GEs", "setting": "GII.4 HuNoV", "result": 58.10, "unit": "%"}]}, {"compound": "Cc1nc(Nc2ccc(F)cc2)nc(N2CCc3ccccc3C2C)c1C", "note": "(stereo not drawn) [Revaprazan hydrochloride]", "values": [{"measurement": "(%) Cytotoxicity", "setting": "J2 HIE monolayers; human, 24 h, 10 μM", "result": 0.20, "unit": "%"}, {"measurement": "activity at 10 µM", "setting": "GII.4 HuNoV", "result": 214, "unit": "%"}]}, {"compound": "Dicurone", "values": [{"measurement": "(%) HuNoV GEs", "setting": "GII.4 HuNoV", "result": 90.75, "unit": "%"}]}, {"compound": "CC(=O)Oc1ccccc1C(=O)Nc1ncc([N+](=O)[O-])s1", "note": "[Nitazoxanide]", "values": [{"measurement": "(%) Cytotoxicity", "setting": "J2 HIE monolayers; human, 24 h, 10 μM", "result": 4.63, "unit": "%"}, {"measurement": "activity at 10 µM", "setting": "GII.4 HuNoV", "result": 44.5, "unit": "%"}]}, {"compound": "C=C1[C@H](CO)[C@@H](O)C[C@@H]1n1cnc2c(=O)[nH]c(N)nc21", "note": "[Entecavir hydrate]", "values": [{"measurement": "(%) Cytotoxicity", "setting": "J2 HIE monolayers; human, 24 h, 10 μM", "result": -1.04, "unit": "%"}, {"measurement": "activity at 10 µM", "setting": "GII.4 HuNoV", "result": 23.6, "unit": "%"}]}, {"compound": "O=C1Nc2ccc(Cl)cc2[C@@](C#CC2CC2)(C(F)(F)F)O1", "note": "[Efavirenz]", "values": [{"measurement": "(%) Cytotoxicity", "setting": "J2 HIE monolayers; human, 24 h, 10 μM", "result": 1.69, "unit": "%"}, {"measurement": "activity at 10 µM", "setting": "GII.4 HuNoV", "result": 135, "unit": "%"}]}, {"compound": "O=C(Nc1ccccc1)c1ccccc1O", "note": "[Salicylanilide]", "values": [{"measurement": "activity at 10 µM", "setting": "GII.4 HuNoV", "result": 85.5, "unit": "%"}]}, {"compound": "Nc1ncnc2c1ncn2[C@@H]1O[C@H](CO)[C@@H](O)[C@@H]1O", "note": "[Vidarabine]", "values": [{"measurement": "(%) Cytotoxicity", "setting": "J2 HIE monolayers; human, 24 h, 10 μM", "result": -2.58, "unit": "%"}, {"measurement": "activity at 10 µM", "setting": "GII.4 HuNoV", "result": 51.4, "unit": "%"}]}, {"compound": "CCn1cc(C(=O)O)c(=O)c2cc(F)c(N3CCNCC3)nc21", "note": "[Enoxacin]", "values": [{"measurement": "(%) Cytotoxicity", "setting": "J2 HIE monolayers; human, 24 h, 10 μM", "result": 0.62, "unit": "%"}, {"measurement": "activity at 10 µM", "setting": "GII.4 HuNoV", "result": 12.5, "unit": "%"}]}, {"compound": "O=c1[nH]cnc2c1ncn2[C@H]1CC[C@@H](CO)O1", "note": "[Didanosine]", "values": [{"measurement": "(%) Cytotoxicity", "setting": "J2 HIE monolayers; human, 24 h, 10 μM", "result": -0.0652, "unit": "%"}, {"measurement": "activity at 10 µM", "setting": "GII.4 HuNoV", "result": 52.8, "unit": "%"}]}, {"compound": "O=C(/C=C/c1ccc(O)cc1)c1ccc(O)cc1O", "note": "[Isoliquiritigenin]", "values": [{"measurement": "(%) Cytotoxicity", "setting": "J2 HIE monolayers; human, 24 h, 10 μM", "result": 0.86, "unit": "%"}, {"measurement": "activity at 10 µM", "setting": "GII.4 HuNoV", "result": 172, "unit": "%"}]}, {"compound": "CCc1nn(CC(=O)NCCCN(CC)CC)c(=O)c2cc3sc(C)cc3n12", "note": "[C795-0720]", "values": [{"measurement": "(%) Cytotoxicity", "setting": "J2 HIE monolayers", "result": 0.72, "unit": "%"}, {"measurement": "(%) HuNoV GEs", "setting": "GII.4 HuNoV", "result": 100.75, "unit": "%"}]}, {"compound": "O=C(O)c1cc(=O)[nH]c(=O)[nH]1", "note": "[Orotic acid]", "values": [{"measurement": "(%) Cytotoxicity", "setting": "J2 HIE monolayers; human, 24 h, 10 μM", "result": 0.45, "unit": "%"}, {"measurement": "activity at 10 µM", "setting": "GII.4 HuNoV", "result": 52.6, "unit": "%"}]}, {"compound": "COC(=O)N[C@H](C(=O)N[C@@H](Cc1ccccc1)[C@@H](O)CN(Cc1ccc(-c2ccccn2)cc1)NC(=O)[C@@H](NC(=O)OC)C(C)(C)C)C(C)(C)C", "note": "[Atazanavir]", "values": [{"measurement": "(%) Cytotoxicity", "setting": "J2 HIE monolayers; human, 24 h, 10 μM", "result": 0.72, "unit": "%"}, {"measurement": "activity at 10 µM", "setting": "GII.4 HuNoV", "result": 66.4, "unit": "%"}]}, {"compound": "O=C1c2cccc(O)c2C(=O)c2c(O)cc(CO)cc21", "note": "[Aloe-emodin]", "values": [{"measurement": "(%) Cytotoxicity", "setting": "J2 HIE monolayers; human, 24 h, 10 μM", "result": 0.59, "unit": "%"}, {"measurement": "activity at 10 µM", "setting": "GII.4 HuNoV", "result": 253, "unit": "%"}]}, {"compound": "CC(C)CN(C[C@@H](O)[C@H](Cc1ccccc1)NC(=O)O[C@H]1CO[C@H]2OCC[C@H]21)S(=O)(=O)c1ccc(N)cc1", "note": "[Darunavir]", "values": [{"measurement": "activity at 10 µM", "setting": "GII.4 HuNoV", "result": 91.8, "unit": "%"}]}, {"compound": "Cc1ccc(NC(=O)C(=O)NC2CC(C)(C)NC(C)(C)C2)cc1", "note": "[YYA-021]", "values": [{"measurement": "(%) HuNoV GEs", "setting": "GII.4 HuNoV", "result": 54.17, "unit": "%"}]}, {"compound": "COC(=O)C1=C(C)NC(c2ncc(F)cc2F)=NC1c1ccc(F)cc1Cl", "note": "(racemic) [Bay 41-4109 racemate]", "values": [{"measurement": "(%) HuNoV GEs", "setting": "GII.4 HuNoV", "result": 39.26, "unit": "%"}]}, {"compound": "Maraviroc", "values": [{"measurement": "(%) HuNoV GEs", "setting": "GII.4 HuNoV", "result": 52.60, "unit": "%"}]}, {"compound": "C=C1CC[C@@H]2[C@](C)(COC(=O)CCC(=O)[O-])[C@H](OC(=O)CCC(=O)O)CC[C@@]2(C)[C@@H]1/C=C/C1=CCOC1=O.[K+]", "note": "[Dehydroandrographolide Succinate Potasium Salt]", "values": [{"measurement": "(%) HuNoV GEs", "setting": "GII.4 HuNoV", "result": 40.48, "unit": "%"}]}, {"compound": "CC(C)CN(C[C@@H](O)[C@H](Cc1ccccc1)NC(=O)O[C@H]1CO[C@H]2OCC[C@H]21)S(=O)(=O)c1ccc(N)cc1.CCO", "note": "[Darunavir Ethanolate]", "values": [{"measurement": "(%) HuNoV GEs", "setting": "GII.4 HuNoV", "result": 147.86, "unit": "%"}]}, {"compound": "O=C(O)[C@H]1O[C@@H](Oc2cc3oc(-c4ccccc4)cc(=O)c3c(O)c2O)[C@H](O)[C@@H](O)[C@@H]1O", "note": "[Baicalin]", "values": [{"measurement": "activity at 10 µM", "setting": "GII.4 HuNoV", "result": 97.7, "unit": "%"}]}, {"compound": "C[C@@H]1CCO[C@H]2Cn3cc(C(=O)NCc4ccc(F)cc4F)c(=O)c(O)c3C(=O)N12", "note": "[Dolutegravir]", "values": [{"measurement": "activity at 10 µM", "setting": "GII.4 HuNoV", "result": 8.52, "unit": "%"}]}, {"compound": "Cc1c(-c2cnccn2)ssc1=S", "note": "[Oltipraz]", "values": [{"measurement": "activity at 10 µM", "setting": "GII.4 HuNoV", "result": 7.76, "unit": "%"}]}]}
